Test results published in PubChem BioAssay (NCI).
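Interpolation was linear, between the two tested concentrations surrounding the appropriate level; five concentrations were tested over 48 hours in 96-well plates. At the TGI there is no net growth.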

How the values were obtained:
Experiment in all cases: NCI-60 cell line screen, 48 h
A498 renal = test system: A498 renal
CAKI-1 renal = test system: CAKI-1 renal
MCF7 breast = test system: MCF7 breast
CCRF-CEM leukemia = test system: CCRF-CEM leukemia
UACC-257 melanoma = test system: UACC-257 melanoma
SK-OV-3 ovarian = test system: SK-OV-3 ovarian
LOX IMVI melanoma = test system: LOX IMVI melanoma
SK-MEL-5 melanoma = test system: SK-MEL-5 melanoma
SF-295 CNS = test system: SF-295 CNS
DU-145 prostate = test system: DU-145 prostate
SK-MEL-28 melanoma = test system: SK-MEL-28 melanoma
NCI-H460 lung = test system: NCI-H460 lung
786-0 renal = test system: 786-0 renal
TK-10 renal = test system: TK-10 renal
SK-MEL-2 melanoma = test system: SK-MEL-2 melanoma
M14 melanoma = test system: M14 melanoma
KM12 colon = test system: KM12 colon

Row | Compound | TGI (A498 renal) [µM] | TGI (CAKI-1 renal) [µM] | TGI (MCF7 breast) [µM] | TGI (CCRF-CEM leukemia) [µM] | TGI (UACC-257 melanoma) [µM] | TGI (SK-OV-3 ovarian) [µM] | TGI (LOX IMVI melanoma) [µM] | TGI (SK-MEL-5 melanoma) [µM] | TGI (SF-295 CNS) [µM] | TGI (DU-145 prostate) [µM] | TGI (SK-MEL-28 melanoma) [µM] | TGI (NCI-H460 lung) [µM] | TGI (786-0 renal) [µM] | TGI (TK-10 renal) [µM] | TGI (SK-MEL-2 melanoma) [µM] | TGI (M14 melanoma) [µM] | TGI (KM12 colon) [µM]
1 | N#CC(C#N)=C(N)/C(C#N)=C/c1cc(O)c(O)c(Br)c1 | > 100 | > 100 | > 100 | > 100 | > 100 | > 100 | > 100 | > 100 | > 100 | > 100 | > 100 | > 100 | > 100 | > 100 | > 100 | > 100 | > 100
2 | CCN1CC2=C(NC(=S)NC2c2cc(OC)c(OC)c(OC)c2)/C(=C/c2cc(OC)c(OC)c(OC)c2)C1 (stereo not given) | 87.8 | > 100 | > 100 | > 100 | > 100 | > 100 | > 100 | 40.1 | > 100 | > 100 | 47.2 | > 100 | > 100 | > 100 | > 100 | > 100 | > 100
3 | N=C(N)n1[nH]c2c(c1=O)CCCC2 | > 100 | > 100 | > 100 | > 100 | > 100 | > 100 | > 100 | > 100 | > 100 | > 100 | > 100 | > 100 | > 100 | > 100 | > 100 | > 100 | > 100
4 | CCCCNC(=O)Nc1c(C(N)=O)c2n(c1C(=O)OCC)CCCCC2 | > 100 | > 100 | > 100 | > 100 | > 100 | > 100 | > 100 | > 100 | > 100 | > 100 | > 100 | > 100 | > 100 | > 100 | > 100 | > 100 | > 100
5 | O=C(Nc1ccccc1C(=O)O)/C(=C/c1ccccc1)NC(=O)c1ccccc1 | > 100 | > 100 | > 100 | > 100 | > 100 | > 100 | > 100 | > 100 | > 100 | > 100 | > 100 | > 100 | > 100 | – | > 100 | > 100 | > 100
6 | C=C(C)[C@@]1(O)CCC[C@H]1NC(=O)OC(C)(C)C | > 100 | > 100 | > 100 | > 100 | > 100 | > 100 | > 100 | > 100 | > 100 | > 100 | > 100 | > 100 | > 100 | > 100 | > 100 | > 100 | > 100
7 | CCOC(=O)c1cc(C2CCN(Cc3ccccc3)C2=O)c(C(=O)C(=[N+]=[N-])C(C)=O)[nH]1 (stereo not given) | > 100 | > 100 | > 100 | > 100 | > 100 | > 100 | > 100 | > 100 | > 100 | > 100 | > 100 | > 100 | > 100 | – | > 100 | > 100 | > 100
8 | Cc1cc2c(cc1C)[n+](=O)c(N1CCN(c3ccc([N+](=O)[O-])cc3)CC1)c(C#N)n2[O-] | > 100 | > 100 | > 100 | > 100 | > 100 | 30.9 | > 100 | > 100 | 37.8 | > 100 | > 100 | 70 | 59.8 | 35.3 | 66 | > 100 | > 100
9 | CCOC(=O)C(=O)N=Nc1nc2c(O)c3ccccc3c(O)c2s1 | 38.2 | 35.6 | 30.4 | > 100 | 3.75 | 34.4 | 3.88 | 3.62 | 12.3 | 31.6 | 6.38 | 26.7 | 22.8 | 39.6 | 8.98 | 4.7 | 20.8
10 | COC(=NCCC1=CCCCC1)OC | > 100 | > 100 | > 100 | > 100 | > 100 | > 100 | – | > 100 | > 100 | > 100 | > 100 | > 100 | > 100 | > 100 | > 100 | 47.3 | > 100
11 | COc1ccc(C(C2C(=O)N(C)C(=O)N(C)C2=O)C(F)(F)C(=O)N(C)C)cc1 (stereo not given) | > 100 | > 100 | > 100 | > 100 | > 100 | > 100 | > 100 | > 100 | > 100 | > 100 | > 100 | > 100 | > 100 | > 100 | > 100 | > 100 | > 100
12 | [N-]=[N+]=Nc1c([N+](=O)[O-])c(Cl)nc2ccccc12 | 26.8 | 4.58 | 4.25 | 1.44 | 3.45 | 27.7 | 3.07 | 21.3 | 38.5 | 5.35 | 5.23 | 33.2 | 1.11 | 3.78 | 5.07 | 3.27 | 21.1
13 | CC(C)(C)OC(=O)NC(Cc1cnc[nH]1)C(=O)N1CCCC1C(N)=O (stereo not given) | > 100 | > 100 | > 100 | > 100 | > 100 | > 100 | > 100 | > 100 | > 100 | > 100 | > 100 | > 100 | > 100 | > 100 | > 100 | > 100 | > 100
14 | CC(C)N=C(NC#N)NS(=O)(=O)c1cnccc1Nc1ccc(Cl)cc1 | > 100 | > 100 | > 100 | > 100 | > 100 | > 100 | – | > 100 | > 100 | > 100 | > 100 | – | > 100 | > 100 | > 100 | > 100 | > 100
15 | COC(=O)NN=C(c1ccc(Cl)cc1)c1ccc(Cl)cc1 | > 100 | > 100 | > 100 | > 100 | > 100 | > 100 | > 100 | > 100 | – | > 100 | > 100 | > 100 | > 100 | > 100 | > 100 | > 100 | > 100
16 | CCCN(CCCCN1C(=O)c2ccccc2C1=O)CC1COc2ccccc2O1 (stereo not given) | > 100 | > 100 | > 100 | 88.8 | > 100 | > 100 | > 100 | > 100 | > 100 | > 100 | > 100 | > 100 | > 100 | > 100 | > 100 | > 100 | > 100
17 | CCN(CC)C(=S)SC1CCOP(=O)(N(CCCl)CCCl)N1C (stereo not given) | > 100 | > 86.8 | > 100 | 43.1 | > 56.1 | > 100 | – | 30.8 | > 100 | > 100 | 42.2 | 14.3 | > 80.1 | > 100 | 45.3 | > 54.1 | > 58.5
18 | CN(C)CCNC(=O)c1cccc2nc3cccc(F)c3nc12 | 5.14 | 15.8 | 6.56 | 10.4 | 3.86 | – | 2.24 | 2.38 | 6.79 | 12.9 | 11.5 | 2.73 | 24.8 | 6.45 | 4.86 | 4.58 | 8.43
19 | Oc1c(-c2ccccc2)sc2ccccc12 | 88.4 | 13.6 | 65.8 | 62.5 | 98.9 | – | 32.3 | 54.5 | 45.7 | 59.5 | > 100 | 51.2 | 59 | > 100 | 41 | 50.6 | 75.6
20 | CCOC(=O)c1cc2c([nH]1)C(=O)CC1=C2CCN1Cc1ccccc1 | 29 | 15 | 32.3 | 28.6 | 36.1 | 37.1 | 29.1 | – | 34.2 | 28.6 | 32.7 | 39.2 | 31 | 30 | 42.5 | – | 33.2
21 | Cc1ccc2c(=O)c(-c3nnc(N)s3)c[nH]c2n1 | > 100 | > 100 | > 100 | > 100 | > 100 | – | > 100 | > 100 | > 100 | > 100 | > 100 | > 100 | > 100 | > 100 | > 100 | > 100 | > 100
22 | CN(C)C=Nc1cccc2cnccc12 | > 100 | > 100 | > 100 | > 100 | > 100 | > 100 | > 100 | > 100 | > 100 | > 100 | > 100 | – | > 100 | > 100 | > 100 | > 100 | –
